{
  "source": "patent US20220402998A1",
  "about": "“PROTEASE SWITCH FOR DUAL TARGETS CHIMERIC ANTIGEN RECEPTOR T CELL THERAPY” (priority 2019, published 2022)",
  "test_system": "NS3/4A protease domain of the CAR",
  "experiment": "CAR surface expression on transduced T cells by flow cytometry with or without asunaprevir",
  "type": "cell-based, hepatitis C virus",
  "procedure": "For flow cytometry, cells are stained using standard procedures. Briefly, cells are suspended at a concentration of 1×10^7 cells/ml in PBS+3% FBS for analysis or in Sort Buffer (PBS, 25 mM HEPES, 1 mM EDTA, 0.1% BSA) for sorting. […] Cells are analyzed by flow cytometry using a CytoFLEX (Beckman Coulter Life Sciences, Indianapolis, Ind.) and operated under standard procedures. To enrich subpopulations of CD4+ and/or CD8+ cells, magnetically separated cells are stained with anti-CD4 and/or anti-CD8 antibodies and sorted on a FACScalibur Cell Sorter.\nAfter T cell transduction, different drugs were provided, CD19-, CD22-CAR were detected by CD19, CD22 protein through flow cytometry. Further, the biological characteristics of the dual-target switchable CAR-T cells were determined. For example, CD25 and CD69 antibodies were used to perform activation assays, CFSE for proliferation assays, CD4, CD8, CCR7 and CD45RA antibodies for determining T cell subsets, and Annexin-V for apoptosis assays. Further, cytotoxicity assays (Calcein-AM release), CD107a assay, and cytokine production detection were performed. These assays are of great importance in testing potency and defining how the switch system works.",
  "data": [
    {"smiles": "C=C[C@@H]1C[C@]1(NC(=O)[C@@H]1C[C@@H](Oc2ncc(OC)c3ccc(Cl)cc23)CN1C(=O)[C@@H](NC(=O)OC(C)(C)C)C(C)(C)C)C(=O)NS(=O)(=O)C1CC1", "note": "[asunaprevir]", "values": [
      {"measurement": "stability of CAR expression levels over time", "setting": "in the presence of asunaprevir", "value": "stable over time"},
      {"measurement": "CAR expression on T cell surface", "setting": "in the presence of asunaprevir, flow cytometry", "value": "a significant portion of T cells express on their cell surface the CAR"},
      {"measurement": "expression levels of CARs on cell surface versus concentration", "setting": "increasing concentrations of asunaprevir", "value": "increase with exposure of said T cells to increasing concentrations of asunaprevir"},
      {"measurement": "CARs on the surface of CAR-T cells after withdrawal", "setting": "withdrawal of asunaprevir for 24 hours", "value": "significant reduction of CARs on the surface of CAR-T cells"},
      {"measurement": "CARs on the surface of CAR-T cells after withdrawal", "setting": "withdrawal of asunaprevir for 48 hours", "value": "absence of CARs on CAR-T cells"}
    ]}
  ]
}
